Experimental data as given in patent publication US10191062B2, “Model gut system” (priority 2013, dated 2019).

Legend:
[1] = fatty acid released from the triglyceride substrate; cited from earlier work
lipase = test: Glyceryl trioctanoate digestion in the model gut system (MGS), glycerol release; type: biochemical, porcine; details: 2 mmol glyceryl trioctanoate; Orlistat at 2.5, 5 and 10 mg vs control digestion; FIG. 6
Method: Fresh porcine bile was extracted from fresh procine gall bladders (collected on ice from abattoir). Approximately 50 gall bladders were collected per batch. The collected bile was pooled, mixed and frozen down in 25 ml aliquots for storage, as 25 ml is required for each replicate.
Glyceryl trioctanoate was used as the tryglyceride substrate for all assays of fat digestion reported herein. In these experiments, 2 mmol (0.94136 g) of glyceryl trioctanoate was added to the synthetic saliva preparations at T[−10] wherein T[−10] means 10 minutes prior to addition of the synthetic saliva to the test system.
At T[−10], salivary preparations containing substrate/sample/controls were prepared as indicated hereinbefore and incubated for 10 minutes on rollers. […]
In all the experiments, data samples of 0.5 ml were taken at T0, T5, T10, T15, T30, T45, T60, T60^B, T65, T70, T75, T90, T105, T120, T150 and T180, wherein (T60^B) represents a second sample at T60 which was taken after the addition of fresh porcine bile. […] The test samples were stored at 4° C. overnight to allow for precipitation and then centrifuged at 10,000 r.p.m. for 10 minutes, after which the supernatant was analysed. […]
Triglyceride digestion can be measured using ZenBio Glycerol Reagent A to quantify the release of glycerol. A 5 μl of sample was incubated with 80 μl Reagent A for 30 minutes and colour development was measured at 550 nm. […]

Row | SMILES | pKa [1] | total glycerol recovered from the model gut system after TCA precipitation (lipase)
1 | CCCC(=O)O [Butyric Acid] | 4.84 | –
2 | CCCCCCCCCCCCCCCCCC(=O)O [Stearic Acid] | 10.15 | –
3 | CCCCCCCCCCCCCCCC(=O)O [Palmitic Acid] | 9.7 | –
4 | CCCCCCCCCCC[C@@H](C[C@@H]1OC(=O)[C@H]1CCCCCC)OC(=O)[C@H](CC(C)C)NC=O [Orlistat] | – | varies in accordance with the level of Orlistat
5 | CCCCCCCC/C=C\CCCCCCCC(=O)O [Oleic Acid] | 9.95 | –
